Data: patent US6534530B1, “Antipicornaviral compounds and compositions, their pharmaceutical uses, and materials for their synthesis” (Agouron Pharmaceuticals, Inc., priority 1999, dated 2003)
Read-outs that look alike come from different tables or passages of the source.

Key:
[1] = in vitro; settings: human
[2] = tested on: HRV-14; assay: Antirhinoviral H1-HeLa cell culture assay (XTT), HRV-14; type: cell-based, human rhinovirus
[3] = biological target: T1, recombinant rhinovirus 3C protease, serotype 14 (Human rhinovirus 14, UniProt P03303); assay: Inhibition of rhinovirus 3C protease (FRET assay), serotype 14; type: biochemical
T1 construct: Recombinant rhinovirus 3C proteases; made in house
Experimental: (§1) Stock solutions (50 mM, in DMSO) of various compounds were prepared; dilutions were in the same solvent. Recombinant rhinovirus 3C proteases (see Birch et al., “Purification of recombinant human rhinovirus 14 3C protease expressed in Escherichia coli,” Protein Expr. Pur. (1995), vol. 6(5), 609-618) from serotypes 14, 16, and 2 were prepared by the following standard chromatographic procedures: (1) ion exchange using Q Sepharose Fast Flow from Pharmacia; (2) affinity chromatography using Affi-Gel Blue from Biorad; and (3) sizing using Sephadex G-100 from Pharmacia. Each assay sample contained 2% DMSO, 50 mM tris pH 7.6, 1 mM EDTA, a test compound at the indicated concentration, approximately 1 μM substrate, and 50-100 nM protease. The kobs/I values were obtained from reactions initiated by addition of enzyme rather than substrate. RVP activity was measured in the fluorescence resonance energy transfer assay. The substrate was (N-terminal) DABCYL-([…]-EDANS. In the uncleaved peptide, the EDANS fluorescence was quenched by the proximal DABCYL moiety. When the peptide was cleaved, the quenching was relieved, and activity was measured as an increase in fluorescence signal. The tabulated data in the column designated kobs/[I] were measured from progress curves in enzyme start experiments.

[4] = biological target: T2, recombinant rhinovirus 3C protease, serotype 2 (Human rhinovirus 2, UniProt P04936); assay: Inhibition of rhinovirus 3C protease (FRET assay), serotype 2; type: biochemical; settings: HRV-2 3C protease
T2 construct: Recombinant rhinovirus 3C proteases; made in house
Experimental: as §1

[5] = biological target: T3, recombinant rhinovirus 3C protease, serotype 16 (Human rhinovirus 16, UniProt Q82122); assay: Inhibition of rhinovirus 3C protease (FRET assay), serotype 16; type: biochemical; settings: HRV-16 3C protease
T3 construct: Recombinant rhinovirus 3C proteases; made in house
Experimental: as §1

[6] = biological target: T4, rhinovirus 3C protease, HRV-89 (Human rhinovirus A serotype 89, UniProt P07210); assay: Inhibition of rhinovirus 3C protease (FRET assay), serotype 89; type: biochemical, human rhinovirus 89; settings: HRV-89 3C protease
T4 construct: Recombinant rhinovirus 3C proteases

[7] = tested on: H1-HeLa cells; assay: Cytotoxicity in mock-infected H1-HeLa cells (antirhinoviral assay, XTT); settings: HRV-14
[8] = tested on: HRV-16; assay: Antirhinoviral H1-HeLa cell culture assay (XTT), HRV-16; type: cell-based; settings: Human rhinovirus sp., HRV16, HRV-16, H1-HeLa cells
From the text: (1989), vol. 81, 577-586.

[9] = Rhinovirus B, HRV14, HRV-14, H1-HeLa cells

T2 sequence (P04936 1508-1690): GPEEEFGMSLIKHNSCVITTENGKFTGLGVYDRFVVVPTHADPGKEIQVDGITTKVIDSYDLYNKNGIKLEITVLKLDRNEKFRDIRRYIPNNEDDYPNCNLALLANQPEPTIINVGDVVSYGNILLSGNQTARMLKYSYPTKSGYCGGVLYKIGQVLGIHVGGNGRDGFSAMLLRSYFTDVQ
T3 sequence (Q82122 1511-1693): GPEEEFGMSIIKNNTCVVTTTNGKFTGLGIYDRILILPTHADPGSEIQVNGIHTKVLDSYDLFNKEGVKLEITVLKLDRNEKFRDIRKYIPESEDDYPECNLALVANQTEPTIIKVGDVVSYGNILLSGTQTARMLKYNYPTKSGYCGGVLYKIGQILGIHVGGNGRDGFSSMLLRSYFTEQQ
T1 sequence (P03303 1538-1719): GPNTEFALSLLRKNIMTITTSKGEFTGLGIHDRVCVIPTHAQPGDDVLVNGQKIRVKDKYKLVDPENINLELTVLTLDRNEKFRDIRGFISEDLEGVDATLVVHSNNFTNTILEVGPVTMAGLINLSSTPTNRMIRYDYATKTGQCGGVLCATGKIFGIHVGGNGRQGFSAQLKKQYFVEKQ
T4 sequence (P07210 1522-1704): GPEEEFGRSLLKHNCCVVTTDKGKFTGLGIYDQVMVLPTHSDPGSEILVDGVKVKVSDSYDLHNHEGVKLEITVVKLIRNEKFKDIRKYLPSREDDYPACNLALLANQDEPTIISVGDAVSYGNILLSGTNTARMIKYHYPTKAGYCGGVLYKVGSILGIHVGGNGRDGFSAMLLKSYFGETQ

Compound | CC50 at 2 days ([1]; mock-infected H1-HeLa cells) | EC50 [2, 9] | Ki [3] | also measured
COCC#CC(=O)[C@H](CNC(C)=O)NC(=O)[C@H](Cc1ccccc1)NC(=O)[C@H](CC(C)C)NC(=O)OCc1ccccc1 [Compound 17, Cbz-L-Leu-L-Phe-L-(N-Ac-amino-AIa)-C≡CCH2OCH3] | > 100 µM | > 100 µM | 0.075 µM | 
CC(C)C[C@H](NC(=O)OCc1ccccc1)C(=O)N[C@@H](Cc1ccccc1)C(=O)N[C@@H](C[C@@H]1CCNC1=O)C(=O)c1nccs1 [Compound 22, Cbz-L-Leu-L-Phe-L-[(S)-Pyrrol-Ala]-2-Thiazole] | 240 µM | 7.9 µM | 0.7 µM | melting point: 83 to 85 °C
CC(=O)NC[C@H](NC(=O)[C@H](Cc1ccccc1)NC(=O)[C@H](CC(C)C)NC(=O)OCc1ccccc1)C(=O)c1ccccn1 [Compound 8, Cbz-L-Leu-L-Phe-L-(N-Ac-amino-Ala)-2-Pyridine] |  |  | 80 µM | 
CC(=O)NC[C@H](NC(=O)[C@H](Cc1ccccc1)NC(=O)[C@H](CC(C)C)NC(=O)OCc1ccccc1)C(=O)COC(=O)c1c(C)cc(C)cc1C [Compound 3, Cbz-L-Leu-L-Phe-L-(N-Ac-amino-Ala)-CH2OC(O)-(2,4,6-trimethylphenyl)] | 25 µM | > 25 µM |  | kobs/[I] ([3]; HRV-14 3C protease, progress curves in enzyme start experiments): slow
CSCC(=O)[C@H](CCC(N)=O)NC(=O)[C@H](Cc1ccccc1)NC(=O)[C@H](CC(C)C)NC(=O)OCc1ccccc1 [Compound 2, Cbz-L-Leu-L-Phe-L-(Gln)-CH2SCH3] |  |  | 50 µM | 
CC(C)C[C@H](NC(=O)OCc1ccccc1)C(=O)N[C@@H](Cc1ccccc1)C(=O)N[C@@H](CNC(=O)OC(C)(C)C)C(=O)c1nc2ccccc2s1 [Compound 6, Cbz-L-Leu-L-Phe-L-(N-Boc-amino-Ala)-2-Benzthiazole] |  |  | 4.8 µM | 
C#CC(=O)[C@H](CNC(C)=O)NC(=O)[C@H](Cc1ccccc1)NC(=O)[C@H](CNC(C)=O)NC(=O)OCc1ccccc1 [Compound 16] | > 100 µM | > 100 µM | 0.035 µM | 
COCC(=O)[C@H](CNC(C)=O)NC(=O)[C@H](Cc1ccccc1)NC(=O)[C@H](CC(C)C)NC(=O)OCc1ccccc1 [Compound 19, Cbz-L-Leu-L-Phe-L-(N-Ac-amino-Ala)-CH2OCH3] |  |  | 27 µM | Ki [4]: 12.9 µM; Ki [5]: 27 µM; Ki [6]: 20.6 µM
Cc1cc(CCCCCCCOc2ccc(C3=N[C@@H](C)CO3)cc2)on1 [WIN52084, reference compound] |  |  |  | CC50 [7]: > 10 µM; EC50 ([2]; HRV-14, H1-HeLa cells): 0.07 µM
CCOC(=O)c1ccc(OCCC2CCN(c3ccc(C)nn3)CC2)cc1 [Pirodavir, reference compound] |  | 0.03 µM |  | CC50 at 2 days [1]: > 10 µM
CC(=O)[C@H](C[C@@H]1CCNC1=O)NC(=O)[C@H](Cc1ccccc1)NC(=O)[C@H](CC(C)C)NC(=O)OCc1ccccc1 [Compound 24, Cbz-L-Leu-L-Phe-L-[(S)-Pyrrol-Ala]-CH3] | > 10 µM | > 10 µM | 0.65 µM | 
Cc1cc(CCCCCOc2c(Cl)cc(C3=NCCO3)cc2Cl)on1 [WIN54954, reference compound] |  |  |  | CC50 [7]: > 63 µM; EC50 ([2]; HRV-14, H1-HeLa cells): 2.13 µM
CNC(=O)C(=O)[C@H](CNC(C)=O)NC(=O)[C@H](Cc1ccccc1)NC(=O)[C@H](CC(C)C)NC(=O)OCc1ccccc1 [Compound 10, Cbz-L-Leu-L-Phe-L-(N-Ac-amino-Ala)-C(O)NHCH3] | > 320 µM | 251 µM | 20 µM | 
Cc1cc(CCCOc2c(C)cc(-c3noc(C(F)(F)F)n3)cc2C)on1 [Pleconaril, reference compound] | > 10 µM | 0.01 µM |  | 
CC(C)C[C@H](NC(=O)OCc1ccccc1)C(=O)N[C@@H](Cc1ccccc1)C(=O)N[C@@H](C[C@@H]1CCNC1=O)C(=O)c1ccccn1 [Compound 23, Cbz-L-Leu-L-Phe-L-[(S)-Pyrrol-Ala]-2-Pyridine] | 200 µM | 4 µM | 0.17 µM | 
CC(C)C[C@H](NC(=O)OCc1ccccc1)C(=O)N[C@@H](Cc1ccccc1)C(=O)N[C@@H](C[C@@H]1CCNC1=O)C(=O)c1nc2ccccc2s1 [Compound 21, Cbz-L-Leu-L-Phe-L-[(S)-Pyrrol-Ala]-2-Benzthiazole] | > 320 µM | 3.2 µM | 0.065 µM | melting point: 108 to 111 °C

Compound | CC50 at 2 days ([1]; mock-infected H1-HeLa cells) | EC50 [2, 9] | Ki [3] | also measured
CC(=O)NC[C@@H](NC(=O)[C@H](Cc1ccccc1)NC(=O)[C@H](CC(C)C)NC(=O)OCc1ccccc1)C(=O)C(=O)N1CCCCC1 [Compound 12, Cbz-L-Leu-L-Phe-D-(N-Ac-amino-Ala)-C(O)-Piperidine] |  | 39 µM | 10.7 µM | 
CC(C)C[C@H](NC(=O)OCc1ccccc1)C(=O)N[C@@H](Cc1ccccc1)C(=O)N[C@@H](CNC(=O)OC(C)(C)C)C(=O)c1ccccn1 [Compound 7, Cbz-L-Leu-L-Phe-L-(N-Boc-amino-Ala)-2-Pyridine] |  |  | 71 µM | 
Cc1cc(CCCCCCCOc2ccc(C3=NCCO3)cc2)on1 [WIN51711, reference compound] |  |  |  | CC50 [7]: > 60 µM; EC50 ([2]; HRV-14, H1-HeLa cells): 0.78 µM
CC(=O)NC[C@H](NC(=O)[C@H](Cc1ccccc1)NC(=O)[C@H](CC(C)C)NC(=O)OCc1ccccc1)C(C)=O [Compound 5, Cbz-L-Leu-L-Phe-L-(N-Ac-amino-Ala)-CH3] |  |  | 138 µM | 
CC(=O)NC[C@H](NC(=O)[C@H](Cc1ccccc1)NC(=O)[C@H](CC(C)C)NC(=O)OCc1ccccc1)C(=O)COCCc1ccccc1 [Compound 18, Cbz-L-Leu-L-Phe-L-(N-Ac-amino-Ala)-CH2OCH2CH2Ph] | 20 µM | > 20 µM | 9.1 µM | Ki [4]: 11 µM; Ki [5]: 6.7 µM; Ki [6]: 14 µM
C=CC(=O)[C@H](CNC(C)=O)NC(=O)[C@H](Cc1ccccc1)NC(=O)[C@H](CC(C)C)NC(=O)OCc1ccccc1 [Compound 15, Cbz-L-Leu-L-Phe-L-(N-Ac-amino-Ala)-CH=CH2] | > 100 µM | > 100 µM | 0.098 µM | 
CC(C)C[C@H](NC(=O)OCc1ccccc1)C(=O)N[C@@H](Cc1ccccc1)C(=O)N[C@@H](C[C@@H]1CCNC1=O)C(=O)c1ccccc1 [Compound 26, Cbz-L-Leu-L-Phe-L-[(S)-Pyrrol-Ala]-Ph] | > 10 µM | > 10 µM | 3.22 µM | 
CC(=O)NC[C@H](NC(=O)[C@H](Cc1ccccc1)NC(=O)[C@H](CC(C)C)NC(=O)OCc1ccccc1)C(=O)c1nc2ccccc2s1 [Compound 9, Cbz-L-Leu-L-Phe-L-(N-Ac-amino-Ala)-2-Benzthiazole] | 25 µM | > 25 µM | 1.7 µM | Ki [4]: 0.9 µM; EC50 [8]: > 25 µM; Ki [5]: 0.31 µM; Ki [6]: 0.48 µM
CC(C)C[C@H](NC(=O)OCc1ccccc1)C(=O)N[C@@H](Cc1ccccc1)C(=O)N[C@@H](CCC(N)=O)C(=O)COC(=O)c1c(Cl)cccc1Cl [Compound 27, Cbz-L-Leu-L-Phe-L-Gln-CH2OC(O)-(2,6-dichlorophenyl)] |  |  |  | kinact/KI ([3]; pH 7.6, HRV-14 3C protease, progress curves in enzyme start experiments, read-out: kobs/[I]): 2500 M⁻¹ s⁻¹
CC(=O)NC[C@H](NC(=O)[C@H](Cc1ccccc1)NC(=O)[C@H](CC(C)C)NC(=O)OCc1ccccc1)C(=O)C(=O)N1CCCCC1 [Compound 11, Cbz-L-Leu-L-Phe-L-(N-Ac-amino-Ala)-C(O)-Piperidine] |  |  | > 110 µM | 
CC(=O)NC[C@H](NC(=O)[C@H](Cc1ccccc1)NC(=O)[C@H](CC(C)C)NC(=O)OCc1ccccc1)C(=O)c1nccs1 [Compound 13, Cbz-L-Leu-L-Phe-L-(N-Ac-amino-Ala)-2-Thiazole] | 56 µM | > 56 µM | 24 µM | Ki [4]: 13.3 µM; Ki [5]: 4 µM
Cbz-L-Leu-L-Phe-L-(N-Boc-amino-Ala)-CH3 [Compound 4] |  |  |  | Ki ([3]; HRV-14 3C protease, read-out: Ki): 16.3 µM
CSCC(=O)[C@H](CCC(=O)NC(c1ccccc1)(c1ccccc1)c1ccccc1)NC(=O)[C@H](Cc1ccccc1)NC(=O)[C@H](CC(C)C)NC(=O)OCc1ccccc1 [Compound 1, Cbz-L-Leu-L-Phe-L-(Tr-Gln)-CH2SCH3] |  |  | 9 µM | 
CC(C)C[C@H](NC(=O)OCc1ccccc1)C(=O)N[C@@H](Cc1ccccc1)C(=O)N[C@@H](CCC(N)=O)C(=O)c1nc2ccccc2s1 [Compound 20, Cbz-L-Leu-L-Phe-L-Gln-2-Benzthiazole] | > 100 µM | 17.4 µM | 3.5 µM | 
CC(C)C[C@H](NC(=O)OCc1ccccc1)C(=O)N[C@@H](Cc1ccccc1)C(=O)N[C@@H](C[C@@H]1CCNC1=O)C(=O)c1cc2ccccc2s1 [Compound 25, Cbz-L-Leu-L-Phe-L-[(S)-Pyrrol-Ala]-2-Benzothiophene] | > 10 µM | > 10 µM | 4.7 µM | 
